Values of other authors as cited in patent US20200306231A1, “ORAL HYPOGLYCEMIC AGENTS AS FOOD ADDITIVES AND SUPPLEMENTS” (priority 2017, published 2020).

Legend:
[1] = in vivo
[2] = DPPOS
[3] = type 2 diabetes
[4] = another study
[5] = neoadjuvant chemotherapy; type 2 diabetes patients taking metformin
[6] = type 2 diabetes patients followed for 10 years; taking metformin compared with not taking metformin
[7] = ovarian cancer after chemotherapy, type 2 diabetes
[8] = lung cancer after chemotherapy; type 2 diabetics taking metformin
[9] = type 2 diabetes population; compared with other anti-diabetes drugs

Structure (SMILES) | side effect known to be caused [1] | lifespan (nematodes) | safety and tolerability [2] | weight loss [2] | risk of developing colorectal cancer, greater for those not taking metformin versus those taking metformin [3] [%] | survival greater for those taking metformin versus not taking [3] [%] | improved survival with metformin use [4] [%] | chance of having a complete response (no residual cancer found during surgery) [5] [%] | risk reduction for developing prostate cancer (type 2 diabetics taking metformin compared with not taking) | overall survival rate greater, taking metformin versus not taking (type 2 diabetics who have prostate cancer) [%] | lifespan and health span (mouse model) | lower risk of developing any type of cancer [6] [%] | 5-year overall survival rate ([7]; metformin users) [%] | progression free survival at 5 years ([7]; taking metformin) [%] | overall survival rate [8] [months] | progression free survival [8] [months] | risk of cardiovascular disease [9]
COc1ccc2cc3[n+](cc2c1OC)CCc1cc2c(cc1-3)OCO2 [berberine] | constipation | – | – | – | – | – | – | – | – | – | – | – | – | – | – | – | –
CN(C)C(=N)N=C(N)N [metformin] | diarrhea | extends the lifespan | safe and well tolerated | moderate but durable weight loss | 200 | 34 | 24 | 24 | no risk reduction | 45 | extends both lifespan and health span | 54 | 63 | 51 | 20 | 8.4 | decreased risk of cardiovascular disease
